Values quoted from earlier work as cited in patent US6201025A, “N-aralkylaminotetralins as ligands for the neuropeptide Y Y5 receptor” (Ortho-McNeil Pharmaceutical, Inc., priority 1999, dated 2001).

Columns and labels:
feeding in animals = conditions: cited from earlier work
classic Y1 receptor = conditions: cited from earlier work
luteinizing hormone (LH) = conditions: rodents; cited from earlier work
rodents = conditions: intracerebroventricularly; cited from earlier work
[1] = test system: forskolin-stimulated cAMP production/levels in a neuroblastoma cell line; conditions: cited from earlier work
food intake in rats = conditions: satiated rats; as little as one-billionth of a gram; cited from earlier work
[2] = test system: animal models of learning; conditions: cited from earlier work
live animals = conditions: icv or into the amygdala; cited from earlier work

Substance	feeding response (feeding in animals)	binding at the classic Y1 receptor (classic Y1 receptor)	release of luteinizing hormone (LH) (luteinizing hormone (LH))	anxiogenic effect (rodents)	effect on forskolin-stimulated cAMP production/levels [1]	effect on food intake, injected directly into the CNS (food intake in rats)	memory and performance scores [2]	effect in animal models of anxiety (live animals)
NPY2-36: NPY fragment	potent inducer of feeding	poor binding	–	–	–	–	–	–
neuropeptide Y [NPY]	–	–	mediates endocrine functions such as the release of luteinizing hormone (LH)	not anxiogenic	inhibits forskolin-stimulated cAMP production/levels	causes satiated rats to overeat	improves memory and performance scores	produces anxiolytic effects
